≈ marks a conversion by molar mass, not a printed value.
Tests used:
[1] = tested on: M. smegmatis ΔrrnB (bacterial ribosomes); experiment: MIC, recombinant M. smegmatis with bacterial (wild-type) ribosomes; type: cell-based, Mycobacterium smegmatis; conditions: 72 h at 37° C.
Text: (§1) The strain used for introduction/selection of mutational alterations was a genetically modified derivative of Mycobacterium smegmatis carrying a single functional chromosomal rRNA operon (Sander et al. Mol. Microbiol. 1996, 22: 841-848). This strain, termed M. smegmatis rrn^−, allowed for the selection of mutational rRNA gene alterations using a plasmid carrying the rRNA gene with the respective mutational alteration.)
(§2) The rRNA gene carried on the plasmid encodes either the complete rRNA operon (Prammananan et al. Antimicrob. Agents Chemother. 1999, 43: 447-453) or a non-functional rRNA gene fragment of approximately 1.0 kb (Pfister et al. Antimicrob. Agents Chemother. 2003, 47: 1496-1502). PCR-mutagenesis in vitro was used to generate the mutagenized rRNA gene fragment. In the case of a partial rRNA gene fragment the mutagenized rRNA gene fragment was cloned into vectors pMV261 or pMV361 (Sander et al. Mol. Microbiol. 2002, 46: 1295-1304; Pfister et al. Antimicrob. Agents Chemother. 2003, 47: 1496-1502) to result in vectors carrying a partial rRNA gene fragment of approximately 1.0 kb with the mutational alteration introduced. In the case of plasmids carrying the complete rRNA operon the mutagenized rRNA gene fragment obtained by PCR was cloned into vectors pMV361 rRNA or pMV261 rRNA using appropriate restriction sites (Prammananan et al. Antimicrob. Agents Chemother. 1999, 43: 447-453). Vectors pMV361 rRNA and pMV261 rRNA carried a complete copy of the rRNA operon from M. smegmatis (Sander et al. Mol. Microbiol. 1997, 26: 469-480). Introduction of mutations into the plasmid encoded rRNA was confirmed by sequencing.
(§3) The single rRNA allelic derivative of M. smegmatis, i.e. M. smegmatis rrn, was used for transformation of the plasmids. The strain was made electro-competent and transformed according to standard techniques and as described previously (Sander et al. Mol. Microbiol. 1997, 26: 469-484). Following primary selection, the plasmid-encoded mutational rRNA gene alteration was transferred into the single chromosomal rRNA operon by means of RecA-mediated homologous recombination (Prammananan at al. Antimicrob. Agents Chemother. 1999, 43: 447-453). Introduction of the mutational rRNA gene alteration into the single functional chromosomal rRNA operon by gene conversion was confirmed by sequence determination.
(§4) Ribosomal drug susceptibility was studied by determining the minimal inhibitory concentrations, as described in detail in Pfister et al. 2003 and 2005 (see above).
(§5) The recombinants carrying the respective mutational alterations in the functional rRNA operon were colony-purified and subjected to determinations of minimal inhibitory concentrations (MIC) to determine ribosomal drug susceptibility. Cultures from single colonies were grown in LB medium supplemented with 0.05% Tween 80 and used for MIC tests in a microtiter plate format. Starting cultures contained 200 μl of bacterial cells at an optical density of 0.025 at 600 nm, and the respective drug was added in twofold series of dilution.
(§6) Key nucleotides which distinguish the prokaryotic from the eukaryotic decoding site are 16S rRNA positions 1408 (bacterial ribosome: A, eukaryotic cytosolic ribosomes: G) and 1491 (bacterial ribosomes: G, eukaryotic cytosolic ribosomes: A, eukaryotic mitochondrial ribosome: C).

[2] = tested on: M. smegmatis ΔrrnB 1408G (16S rRNA position 1408 G, eukaryotic cytosolic ribosomes); experiment: MIC, recombinant M. smegmatis with mutant ribosomes 1408G; type: cell-based, Mycobacterium smegmatis; conditions: M. smegmatis ΔrrnB 1408G mutant ribosomes; 72 h at 37° C.
Text: as §1, §2, §3, §4, §5, §6

[3] = tested on: M. smegmatis ΔrrnB 1491A (16S rRNA position 1491 A, eukaryotic cytosolic ribosomes); experiment: MIC, recombinant M. smegmatis with mutant ribosomes 1491A; type: cell-based, Mycobacterium smegmatis; conditions: M. smegmatis ΔrrnB 1491A mutant ribosomes; 72 h at 37° C.
Text: as §1, §2, §3, §4, §5, §6

[4] = tested on: M. smegmatis ΔrrnB 1491C (16S rRNA position 1491 C, eukaryotic mitochondrial ribosome); experiment: MIC, recombinant M. smegmatis with mutant ribosomes 1491C; type: cell-based, Mycobacterium smegmatis; conditions: M. smegmatis ΔrrnB 1491C mutant ribosomes; 72 h at 37° C.
Text: as §1, §2, §3, §4, §5, §6

[5] = tested on: AG011 Staph. aureus clinical isolate; experiment: Standard MIC assay, AG011; type: cell-based, Staphylococcus aureus; conditions: for MIC: Staphylococcus aureus, read-out: Minimal inhibitory concentrations AG011
Protocol: (§7) Selected compounds of the present invention were tested for antibiotic susceptibility using clinical isolates of Staphylococci, Enterococci and Escherichia coli as well as strains carrying defined resistance determinants and compared to well known antibiotics of the state of the art. Drug susceptibility was determined in standard MIC assays, i.e. by determination of the minimal drug concentration required to inhibit bacterial growth in vitro.

[6] = tested on: AG013 Staph. epi. clinical isolate; experiment: Standard MIC assay, AG013; type: cell-based, Staphylococcus epidermidis; conditions: for MIC: Staphylococcus epidermidis, read-out: Minimal inhibitory concentrations AG013
Protocol: as §7

[7] = tested on: AG014 Staph. epi. clinical isolate; experiment: Standard MIC assay, AG014; type: cell-based, Staphylococcus epidermidis; conditions: for MIC: Staphylococcus epidermidis, read-out: Minimal inhibitory concentrations AG014
Protocol: as §7

AG016 S. aureus BM3002 = experiment: Standard MIC assay, AG016; type: cell-based, Staphylococcus aureus; conditions: for MIC: Staphylococcus aureus, read-out: Minimal inhibitory concentrations AG016
Protocol: as §7

[8] = tested on: AG015 S. aureus BM3002 (ANT4′); experiment: Standard MIC assay, AG015; type: cell-based, Staphylococcus aureus; conditions: for Minimal inhibitory concentrations AG015: S. aureus BM3002 (ANT4′); for MIC: Staphylococcus aureus, read-out: Minimal inhibitory concentrations AG015
Protocol: as §7

AG017 E. faecalis JH2-2 = experiment: Standard MIC assay, AG017; type: cell-based, Enterococcus faecalis; conditions: for MIC: Enterococcus faecalis, read-out: Minimal inhibitory concentrations AG017
Protocol: as §7

[9] = tested on: AG019 E. faecalis JH2-2 (APH2″ AAC6′); experiment: Standard MIC assay, AG019; type: cell-based, Enterococcus faecalis; conditions: for Minimal inhibitory concentrations AG019: E. faecalis JH2-2 (APH2″ AAC6′); for MIC: Enterococcus faecalis, read-out: Minimal inhibitory concentrations AG019
Protocol: as §7

[10] = tested on: AG001 E. coli clinical isolate; experiment: Standard MIC assay, AG001; type: cell-based, Escherichia coli
Protocol: as §7

[11] = tested on: AG004 E. coli clinical isolate; experiment: Standard MIC assay, AG004; type: cell-based, Escherichia coli
Protocol: as §7

AG006 E. coli BM13 = experiment: Standard MIC assay, AG006; type: cell-based, Escherichia coli
Protocol: as §7

[12] = tested on: AG007 E. coli BM13 (AAC3); experiment: Standard MIC assay, AG007; type: cell-based, Escherichia coli; conditions: for Minimal inhibitory concentrations AG007: E. coli BM13 (AAC3)
Protocol: as §7

[13] = tested on: AG008 E. coli BM13 (ANT2″); experiment: Standard MIC assay, AG008; type: cell-based, Escherichia coli; conditions: E. coli BM13 (ANT2″)
Protocol: as §7

[14] = tested on: AG009 E. coli BM13 AAC(6′)-1B; experiment: Standard MIC assay, AG009; type: cell-based, Escherichia coli; conditions: for Minimal inhibitory concentrations AG009: E. coli BM13 AAC(6′)-1B
Protocol: as §7

[15] = tested on: AG002 E. coli clinical isolate; experiment: Standard MIC assay, AG002; type: cell-based, Escherichia coli
Protocol: as §7

[16] = tested on: AG003 E. coli clinical isolate; experiment: Standard MIC assay, AG003; type: cell-based, Escherichia coli
Protocol: as §7

Molecule | minimal inhibitory concentrations ΔrrnB [1] [µg/mL] | minimal inhibitory concentrations ΔrrnB 1408G [2] | minimal inhibitory concentrations ΔrrnB 1491A [3] | minimal inhibitory concentrations ΔrrnB 1491C [4] | Minimal inhibitory concentrations AG011 [5] [µg/mL] | Minimal inhibitory concentrations AG013 [6] [µg/mL] | Minimal inhibitory concentrations AG014 [7] [µg/mL] | Minimal inhibitory concentrations AG016 (AG016 S. aureus BM3002) [µg/mL] | Minimal inhibitory concentrations AG015 [8] [µg/mL] | Minimal inhibitory concentrations AG017 (AG017 E. faecalis JH2-2) [µg/mL] | Minimal inhibitory concentrations AG019 [9] [µg/mL] | Minimal inhibitory concentrations AG001 [10] [µg/mL] | Minimal inhibitory concentrations AG004 [11] [µg/mL] | Minimal inhibitory concentrations AG006 (AG006 E. coli BM13) [µg/mL] | Minimal inhibitory concentrations AG007 [12] [µg/mL] | Minimal inhibitory concentrations AG008 [13] [µg/mL] | Minimal inhibitory concentrations AG009 [14] [µg/mL] | MIC [5] [µg/mL] | MIC [6] [µg/mL] | MIC [7] [µg/mL] | also measured
NC[C@@H]1O[C@H](O[C@H]2[C@@H](O)[C@H](O[C@@H]3[C@@H](O)[C@H](N)C[C@H](N)[C@H]3O[C@H]3O[C@@H]4CO[C@@H](c5ccc(Cl)cc5)O[C@H]4[C@H](O)[C@H]3N)O[C@@H]2CO)[C@H](N)[C@@H](O)[C@@H]1O [Compound 5.8, 4′,6′-O-p-Chlorobenzylideneparomomycin] | 4 | >512 µg/mL | >512 µg/mL | >512 µg/mL | 4 to 8 | 8 (≈ 10.8 µM) | 8 to 16 | 8 (≈ 10.8 µM) | 16 (≈ 21.7 µM) | 16 to 32 | 64 (≈ 86.7 µM) | 32 (≈ 43.3 µM) | 16 to 32 | 64 (≈ 86.7 µM) | 64 (≈ 86.7 µM) | 64 (≈ 86.7 µM) | 64 (≈ 86.7 µM) | – | – | – | –
NC[C@@H]1O[C@H](O[C@H]2[C@@H](O)[C@H](O[C@@H]3[C@@H](O)[C@H](N)C[C@H](N)[C@H]3O[C@H]3O[C@@H]4CO[C@@H](c5ccc6ccccc6c5)O[C@H]4[C@H](O)[C@H]3N)O[C@@H]2CO)[C@H](N)[C@@H](O)[C@@H]1O [Compound 5.20, 4′,6′-O-2-Naphthylideneparomomycin] | 2 to 4 | >512 µg/mL | 512 µg/mL | 512 µg/mL | 1 to 2 | 1 (≈ 1.33 µM) | 1 (≈ 1.33 µM) | 4 (≈ 5.31 µM) | 8 to 16 | 8 to 16 | 8 to 16 | 8 (≈ 10.6 µM) | 8 (≈ 10.6 µM) | 8 to 16 | 16 to 32 | 16 (≈ 21.2 µM) | 16 to 32 | – | – | – | –
NC[C@@H]1O[C@H](O[C@H]2[C@@H](O)[C@H](O[C@@H]3[C@@H](O)[C@H](N)C[C@H](N)[C@H]3O[C@H]3O[C@H](CO)[C@@H](OCCCc4ccccc4)[C@H](O)[C@H]3N)O[C@@H]2CO)[C@H](N)[C@@H](O)[C@@H]1O [Compound 19c, 4′-p-(3-phenylpropyl)paromomycin] | 8 to 16 | ≧512 μg/ml | ≧512 μg/ml | 512 µg/mL | – | 4 to 8 | 2 (≈ 2.73 µM) | 4 (≈ 5.45 µM) | 16 (≈ 21.8 µM) | 8 to 16 | 32 (≈ 43.6 µM) | 16 to 32 | 16 (≈ 21.8 µM) | 8 to 16 | 8 to 16 | 8 to 16 | 32 (≈ 43.6 µM) | – | – | – | Minimal inhibitory concentrations AG002 [15]: 16 µg/mL (≈ 21.8 µM); Minimal inhibitory concentrations AG003 [16]: 8 to 16 µg/mL
NC[C@@H]1O[C@H](O[C@H]2[C@@H](O)[C@H](O[C@@H]3[C@@H](O)[C@H](N)C[C@H](N)[C@H]3O[C@H]3O[C@H](CO)[C@@H](O)[C@H](O)[C@H]3N)O[C@@H]2CO)[C@H](N)[C@@H](O)[C@@H]1O [Paromomycin, paromomycin, reference compound] | 1 | 64 µg/mL | 64 µg/mL | ≧512 μg/ml | – | – | – | – | – | – | – | – | – | – | – | – | – | 8 (≈ 13 µM) | ≥ 256 | ≥ 256 | MIC (AG016 S. aureus BM3002): 2 to 4 µg/mL (≈ 3.25 to 6.5 µM); MIC [8]: > 256 µg/mL; MIC (AG017 E. faecalis JH2-2): 128 to 256 µg/mL (≈ 208 to 416 µM); MIC [9]: > 256 µg/mL
NC[C@H]1O[C@H](O[C@H]2[C@H](O)[C@@H](O[C@H]3O[C@H](CO)[C@@H](O)[C@H](N)[C@H]3O)[C@H](N)C[C@@H]2N)[C@H](N)C[C@@H]1O [Tobramycin, reference compound] | – | – | – | – | – | – | – | – | – | – | – | – | – | – | – | – | – | 8 (≈ 17.1 µM) | ≥ 256 | 256 (≈ 548 µM) | MIC (AG016 S. aureus BM3002): 0.5 to 1 µg/mL (≈ 1.07 to 2.14 µM); MIC [8]: ≥ 256 µg/mL; MIC (AG017 E. faecalis JH2-2): 16 to 32 µg/mL (≈ 34.2 to 68.4 µM); MIC [9]: > 256 µg/mL; MIC ([10]; Escherichia coli, read-out: Minimal inhibitory concentrations AG001): 4 µg/mL (≈ 8.56 µM); MIC ([15]; Escherichia coli, read-out: Minimal inhibitory concentrations AG002): 4 µg/mL (≈ 8.56 µM); MIC ([16]; Escherichia coli, read-out: Minimal inhibitory concentrations AG003): 32 µg/mL (≈ 68.4 µM); MIC ([11]; Escherichia coli, read-out: Minimal inhibitory concentrations AG004): 64 µg/mL (≈ 137 µM); MIC (AG006 E. coli BM13; Escherichia coli, read-out: Minimal inhibitory concentrations AG006): 2 µg/mL (≈ 4.28 µM); MIC ([12]; Escherichia coli, read-out: Minimal inhibitory concentrations AG007): 8 µg/mL (≈ 17.1 µM); MIC ([14]; Escherichia coli, read-out: Minimal inhibitory concentrations AG009): 128 to 256 µg/mL (≈ 274 to 548 µM)
Neomycin [reference compound] | – | – | – | – | 4 | 64 to 128 | 32 | 1 to 2 | 128 | 64 | >256 | – | – | – | – | – | – | – | – | – | –
